Holding throughout (assay type): biochemical
Assay [1] deals with PI3K-gamma (Homo sapiens, UniProt P48736). Put plainly: PI3K-gamma fluorescence polarization assay. The following applies: PI3Kγ Avg. IC50. Put shortly: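 FP displacement read-out: 100 nM GST-GRP1 PH domain plus 5 nM BODIPY-TMR-IP4 added after EDTA stop. Preceding kinase step: 5 ng enzyme, diC8-PI(4,5)P2 2.5 μM, ATP 25 μM, MgCl2 2.5 mM, HEPES 5 mM pH 7, one hour, 25° C.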
In assay [2] the target is PI3K-alpha (Homo sapiens, UniProt P42336). The assay is described as follows: PI3K-alpha fluorescence polarization assay. The following applies: read-out: PI3Kα Avg. IC50. For orientation: In fluorescence polarisation assays a small probe gives low polarisation when free and higher when bound to something large.
In assay [3] the target is T1, human TOR (Homo sapiens, UniProt P42345).
T1 construct: FLAG
Put plainly: mTOR enzyme assay (DELFIA, His6-S6K substrate). The following applies: read-out: mTOR Kinase Avg. IC50.

Sequence of PI3K-alpha (P42336 whole entry, species assumed): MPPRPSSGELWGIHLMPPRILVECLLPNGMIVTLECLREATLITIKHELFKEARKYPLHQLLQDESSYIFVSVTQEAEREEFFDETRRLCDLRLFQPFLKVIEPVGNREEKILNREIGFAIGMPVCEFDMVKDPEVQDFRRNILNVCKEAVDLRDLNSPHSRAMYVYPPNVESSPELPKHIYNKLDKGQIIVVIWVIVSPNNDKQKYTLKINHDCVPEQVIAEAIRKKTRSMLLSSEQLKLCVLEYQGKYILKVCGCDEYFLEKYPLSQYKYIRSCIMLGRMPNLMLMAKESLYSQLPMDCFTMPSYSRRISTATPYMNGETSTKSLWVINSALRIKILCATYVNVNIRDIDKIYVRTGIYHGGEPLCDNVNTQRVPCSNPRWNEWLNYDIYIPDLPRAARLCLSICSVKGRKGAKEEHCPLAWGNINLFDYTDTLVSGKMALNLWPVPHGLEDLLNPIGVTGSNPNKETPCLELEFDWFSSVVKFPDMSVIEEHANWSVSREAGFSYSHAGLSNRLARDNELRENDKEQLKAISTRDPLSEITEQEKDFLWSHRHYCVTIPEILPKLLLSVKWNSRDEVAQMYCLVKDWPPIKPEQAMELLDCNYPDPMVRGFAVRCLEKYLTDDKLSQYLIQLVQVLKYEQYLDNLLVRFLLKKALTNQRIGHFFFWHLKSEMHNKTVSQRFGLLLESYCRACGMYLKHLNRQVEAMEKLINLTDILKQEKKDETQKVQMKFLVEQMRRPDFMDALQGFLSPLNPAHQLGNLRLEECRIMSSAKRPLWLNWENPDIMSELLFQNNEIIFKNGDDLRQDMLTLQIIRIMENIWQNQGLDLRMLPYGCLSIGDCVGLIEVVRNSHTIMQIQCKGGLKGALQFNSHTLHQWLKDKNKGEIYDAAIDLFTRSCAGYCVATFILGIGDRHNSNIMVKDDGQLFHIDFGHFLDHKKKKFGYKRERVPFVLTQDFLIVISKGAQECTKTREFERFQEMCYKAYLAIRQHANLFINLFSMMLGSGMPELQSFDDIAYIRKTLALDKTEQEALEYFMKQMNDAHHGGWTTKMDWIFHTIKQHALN
Sequence of PI3K-alpha (P27986 whole entry partner, species assumed): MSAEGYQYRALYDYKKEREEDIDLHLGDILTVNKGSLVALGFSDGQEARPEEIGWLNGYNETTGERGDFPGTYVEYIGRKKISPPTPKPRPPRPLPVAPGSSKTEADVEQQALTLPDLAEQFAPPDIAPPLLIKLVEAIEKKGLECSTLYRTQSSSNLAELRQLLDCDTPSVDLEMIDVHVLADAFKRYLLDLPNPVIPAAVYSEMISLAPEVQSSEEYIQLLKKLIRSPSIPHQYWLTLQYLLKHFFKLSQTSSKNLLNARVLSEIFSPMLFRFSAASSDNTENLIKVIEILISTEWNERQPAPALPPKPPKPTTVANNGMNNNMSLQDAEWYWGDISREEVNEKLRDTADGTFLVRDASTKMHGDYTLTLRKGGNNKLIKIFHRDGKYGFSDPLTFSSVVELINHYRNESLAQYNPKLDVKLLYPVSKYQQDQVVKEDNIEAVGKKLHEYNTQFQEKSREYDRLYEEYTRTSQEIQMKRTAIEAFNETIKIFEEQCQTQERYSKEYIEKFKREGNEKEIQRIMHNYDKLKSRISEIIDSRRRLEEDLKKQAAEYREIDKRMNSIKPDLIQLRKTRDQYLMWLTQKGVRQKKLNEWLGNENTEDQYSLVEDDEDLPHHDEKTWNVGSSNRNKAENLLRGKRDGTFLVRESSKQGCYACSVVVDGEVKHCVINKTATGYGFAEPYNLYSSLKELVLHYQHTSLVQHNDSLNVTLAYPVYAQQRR
Sequence of PI3K-gamma (P48736 whole entry, species assumed, the tested form may be a part): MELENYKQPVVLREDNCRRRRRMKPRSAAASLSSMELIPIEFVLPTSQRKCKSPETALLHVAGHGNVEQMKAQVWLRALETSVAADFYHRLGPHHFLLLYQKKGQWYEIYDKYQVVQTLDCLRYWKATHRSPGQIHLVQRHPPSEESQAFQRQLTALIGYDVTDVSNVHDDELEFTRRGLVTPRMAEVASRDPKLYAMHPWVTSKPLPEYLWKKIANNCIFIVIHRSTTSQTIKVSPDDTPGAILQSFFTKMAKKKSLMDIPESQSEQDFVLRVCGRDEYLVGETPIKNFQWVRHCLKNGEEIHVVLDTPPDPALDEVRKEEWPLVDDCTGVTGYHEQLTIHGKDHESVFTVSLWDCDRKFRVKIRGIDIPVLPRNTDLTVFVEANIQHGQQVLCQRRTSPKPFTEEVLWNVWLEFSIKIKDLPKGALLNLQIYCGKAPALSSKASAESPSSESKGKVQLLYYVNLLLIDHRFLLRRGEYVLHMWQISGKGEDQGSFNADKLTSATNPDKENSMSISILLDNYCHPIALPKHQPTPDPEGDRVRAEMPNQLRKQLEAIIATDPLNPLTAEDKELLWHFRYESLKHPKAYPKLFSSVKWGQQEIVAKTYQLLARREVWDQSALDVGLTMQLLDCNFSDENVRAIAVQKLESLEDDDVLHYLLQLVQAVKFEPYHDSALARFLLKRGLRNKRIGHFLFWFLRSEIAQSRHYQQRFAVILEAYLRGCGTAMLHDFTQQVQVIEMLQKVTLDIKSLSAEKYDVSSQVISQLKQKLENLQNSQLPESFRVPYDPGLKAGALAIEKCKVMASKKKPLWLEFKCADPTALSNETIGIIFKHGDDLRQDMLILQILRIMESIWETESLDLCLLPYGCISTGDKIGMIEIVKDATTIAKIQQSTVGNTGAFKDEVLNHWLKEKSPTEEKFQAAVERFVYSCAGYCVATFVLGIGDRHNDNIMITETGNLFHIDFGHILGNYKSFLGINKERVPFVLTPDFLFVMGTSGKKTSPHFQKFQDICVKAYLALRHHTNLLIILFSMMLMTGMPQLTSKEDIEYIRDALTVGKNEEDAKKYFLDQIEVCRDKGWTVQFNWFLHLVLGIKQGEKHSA

For orientation: IC50 means the concentration that inhibits the measured activity by half. Take `COc1ccc2c(c1)c(/C=C1\Oc3cc(O)ccc3C1=O)c(C)n2CCCN1CCC(C)CC1` [Example 460, (2Z)-6-Hydroxy-2-({5-methoxy-2-methyl-1-[3-(4-methylpiperidin-1-yl)propyl]-1H-indol-3-yl}methylene)-1-benzofuran-3(2H)-one]: the 50% inhibitory concentration (IC50) came out at 1380 nM in assay [1], 18 nM in assay [2] and 6500 nM in assay [3].
In the case of `CCn1c(C)c(/C=C2\Oc3ccc(NC(=O)Nc4ccc(N(C)CCCCN(C)C)cc4)cc3C2=O)c2cc(OC)ccc21` [Compound 675, 1-(4-{[4-(dimethylamino)butyl](methyl)amino}phenyl)-3-{(2Z)-2-[(1-ethyl-5-methoxy-2-methyl-1H-indol-3-yl)methylidene]-3-oxo-2,3-dihydro-1-benzofuran-5-yl}urea], the values for the IC50 in assay [1], in assay [2] and in assay [3] were 40 nM, 9 nM and 370 nM, respectively.
In the case of `O=C1C(=Cc2c[nH]c3cccc(Br)c23)Oc2cc(O)cc(O)c21` [Example 174, 2-[(4-bromo-1H-indol-3-yl)methylene]-4,6-dihydroxy-1-benzofuran-3(2H)-one], the IC50 in assay [1] is > 10000 nM; in assay [2] it was 1510 nM; in assay [3], 7100 nM.
Turning to `Cn1cc(C=C2Oc3cc(O)cc(O)c3C2=O)c2cc(F)ccc21` [Example 227, 2-[(5-fluoro-1-methyl-1H-indol-3-yl)methylene]-4,6-dihydroxy-1-benzofuran-3(2H)-one], the concentration for half-maximal inhibition (IC50) in assay [1] amounted to 7510 nM; in assay [2], 757 nM; in assay [3], 3800 nM.
For `COCCn1c(-c2ccccc2)c(C=C2Oc3cc(O)cc(O)c3C2=O)c2ccccc21` [Example 151, 4,6-dihydroxy-2-{[1-(2-methoxyethyl)-2-phenyl-1H-indol-3-yl]methylene}-1-benzofuran-3(2H)-one], the figures for the IC50 in assay [1], in assay [2] and in assay [3] were 4220 nM, 2110 nM and 710 nM, respectively.
For the compound `COc1ccc2c(c1)c(/C=C1\Oc3cc(O)ccc3C1=O)c(C1CCCC1)n2CCN1CCN(C)CC1` [Example 411, (2Z)-2-({2-Cyclopentyl-5-methoxy-1-[2-(4-methylpiperazin-1-yl)ethyl]-1H-indol-3-yl}methylene)-6-hydroxy-1-benzofuran-3(2H)-one], the IC50 is 984 nM in assay [1], 11.5 nM in assay [2] and 47 nM in assay [3].
Turning to `COc1ccc2[nH]c(-c3c(C)nn(C)c3C)c(/C=C3\Oc4ccc(NC(=O)Nc5cccc(C(=O)N(C)CCCN(C)C)c5)cc4C3=O)c2c1` [Compound 708, N-[3-(dimethylamino)propyl]-3-({[(2Z)-2-{[5-methoxy-2-(1,3,5-trimethyl-1H-pyrazol-4-yl)-1H-indol-3-yl]methylidene}-3-oxo-2,3-dihydro-1-benzofuran-5-yl]carbamoyl}amino)-N-methylbenzamide], the half-maximal inhibitory concentration (IC50) in assay [1] amounted to 351 nM; in assay [2] it was 42 nM; in assay [3], 115 nM.
Consider `CC(C)Oc1ccc(-c2cccc3c2c(/C=C2\Oc4cc(O)cc(O)c4C2=O)cn3C)cc1` [Example 381, (2Z)-4,6-dihydroxy-2-{[4-(4-isopropoxyphenyl)-1-methyl-1H-indol-3-yl]methylene}-1-benzofuran-3(2H)-one], for which the results for the IC50 in assay [1], in assay [2] and in assay [3] were 3950 nM, 2740 nM and 180 nM, respectively.
As for `COc1ccc2c(c1)c(/C=C1\Oc3cc(NC(C)=O)ccc3C1=O)cn2CCCN(C)C` [Example 407, N-(2Z)-[2-({1-[3-(Dimethylamino)propyl]-5-methoxy-1H-indol-3-yl}methylene)-3-oxo-2,3-dihydro-1-benzofuran-6-yl]acetamide], the half-maximal inhibitory concentration (IC50) in assay [1] is > 10000 nM; in assay [2], > 10000 nM; in assay [3] it was > 20000 nM.
Take `CN1CCN(CCn2c(-c3ccccc3)c(C=C3Oc4cc(O)cc(O)c4C3=O)c3ccccc32)CC1` [Example 159, 4,6-dihydroxy-2-({1-[2-(4-methylpiperazin-1-yl)ethyl]-2-phenyl-1H-indol-3-yl}methylene)-1-benzofuran-3(2H)-one]: the IC50 in assay [1] stood at 5120 nM; in assay [2], 2860 nM; in assay [3], 1800 nM.
Take `COc1cc(O)cc2c1C(=O)/C(=C/c1c(-c3ccccc3)n(C)c3ccccc13)O2` [Example 432, (2Z)-6-Hydroxy-4-methoxy-2-[(1-methyl-2-phenyl-1H-indol-3-yl)methylene]benzofuran-3(2H)-one]: the concentration for half-maximal inhibition (IC50) in assay [1] was 8140 nM; in assay [2] it was > 10000 nM; in assay [3], 2030 nM.
Regarding `CN(C)CCCNC(=O)c1ccc(-c2cccc3c2c(/C=C2\Oc4cc(O)cc(O)c4C2=O)cn3C)cc1` [Example 387, 4-{3-[(Z)-(4,6-Dihydroxy-3-oxo-1-benzofuran-2(3H)-ylidene)methyl]-1-methyl-1H-indol-4-yl}-N-[3-(dimethylamino)propyl]benzamide], the IC50 in assay [1] was determined as 4590 nM; in assay [2], 3520 nM; in assay [3], 340 nM.
On to `CNC(=O)Nc1ccc2c(c1)C(=O)/C(=C/c1c(-c3c(C)nn(C)c3C)[nH]c3ccc(OCCOC)cc13)O2` [Compound 680, 1-[(2Z)-2-{[5-(2-methoxyethoxy)-2-(1,3,5-trimethyl-1H-pyrazol-4-yl)-1H-indol-3-yl]methylidene}-3-oxo-2,3-dihydro-1-benzofuran-5-yl]-3-methylurea], for which the values for the IC50 in assay [1], in assay [2] and in assay [3] were 6030 nM, 1920 nM and 535 nM, respectively.
With `COC(=O)Nc1ccc2c(c1)OC(=Cc1cn(CCCN(C)C)c3ccc(OC)cc13)C2=O` [Example 405, Methyl [2-({1-[3-(dimethylamino)propyl]-5-methoxy-1H-indol-3-yl}methylene)-3-oxo-2,3-dihydro-1-benzofuran-6-yl]carbamate], the IC50 was > 10000 nM in assay [1], > 10000 nM in assay [2] and > 20000 nM in assay [3].
On to `CNC(=O)Nc1ccc2c(c1)C(=O)/C(=C/c1c(-c3ccc(CN(C)C)cc3)[nH]c3ccc(OC)cc13)O2` [Compound 624, 1-{(2Z)-2-[(2-{4-[(dimethylamino)methyl]phenyl}-5-methoxy-1H-indol-3-yl)methylidene]-3-oxo-2,3-dihydro-1-benzofuran-5-yl}-3-methylurea], for which the half-maximal inhibitory concentration (IC50) in assay [1] stood at 23 nM; in assay [2], 2.1 nM; in assay [3] it was 57 nM.
Regarding `N#Cc1ccc2[nH]cc(C=C3Oc4cc(O)cc(O)c4C3=O)c2c1` [Example 182, 3-[(4,6-dihydroxy-3-oxo-1-benzofuran-2(3H)-ylidene)methyl]-1H-indole-5-carbonitrile], the IC50 in assay [1] was > 10000 nM; in assay [2], 1110 nM; in assay [3] it was 12000 nM.
Regarding `CNC(=O)Nc1ccc2c(c1)O/C(=C\c1cn(CCCN(C)C)c3ccc(OC)cc13)C2=O` [Example 406, 1-(2Z)-[2-({1-[3-(Dimethylamino)propyl]-5-methoxy-1H-indol-3-yl}methylene)-3-oxo-2,3-dihydro-1-benzofuran-6-yl]-3-methyl urea], the IC50 was > 10000 nM in assay [1] and > 20000 nM in assay [3].
As to `Cc1noc(C)c1-c1c(C=C2Oc3cc(O)cc(O)c3C2=O)c2ccccc2n1C` [Example 191, 2-{[2-(3,5-dimethylisoxazol-4-yl)-1-methyl-1H-indol-3-yl]methylene}-4,6-dihydroxy-1-benzofuran-3(2H)-one], the IC50 was found to be 4180 nM in assay [2] and 390 nM in assay [3].
As to `O=C(Nc1ccc2[nH]cc(C=C3Oc4cc(O)cc(O)c4C3=O)c2c1)c1ccco1` [Example 183, N-{3-[(4,6-dihydroxy-3-oxo-1-benzofuran-2(3H)-ylidene)methyl]-1H-indol-5-yl}-2-furamide], the IC50 came out at 1200 nM in assay [2] and 6100 nM in assay [3].
`COc1ccc(-c2cccc3c2c(/C=C2\Oc4cc(O)cc(O)c4C2=O)cn3C)cn1` [Example 369, (2Z)-4,6-Dihydroxy-2-{[4-(6-methoxypyridin-3-yl)-1-methyl-1H-indol-3-yl]methylene}-1-benzofuran-3(2H)-one]: the half-inhibitory concentration (IC50) in assay [2] was 1050 nM; in assay [3], 84.5 nM.
Taken in the same sequence, the figures for `Cc1ccc2c(/C=C3\Oc4cc(O)cc(O)c4C3=O)c[nH]c2c1` [Example 48, (2Z)-4,6-dihydroxy-2-[(6-methyl-1H-indol-3-yl)methylene]-1-benzofuran-3(2H)-one] were 3420 nM and > 5000 nM.
With `Cc1c(C=C2Oc3cc(O)cc(O)c3C2=O)c2ccccc2n1CCCC#N` [Example 240, 4-{3-[(4,6-dihydroxy-3-oxo-1-benzofuran-2(3H)-ylidene)methyl]-2-methyl-1H-indol-1-yl}butanenitrile], the IC50 was 3330 nM in assay [2] and 2700 nM in assay [3].
`Cn1c(-c2ccc(OCc3ccccc3)cc2)c(C=C2Oc3cc(O)cc(O)c3C2=O)c2ccccc21` [Example 260, 2-({2-[4-(benzyloxy)phenyl]-1-methyl-1H-indol-3-yl}methylene)-4,6-dihydroxy-1-benzofuran-3(2H)-one]: the 50% inhibitory concentration (IC50) turned out to be 1670 nM in assay [2] and 4500 nM in assay [3].
Taken in the same sequence, the figures for `COc1cccc2c1c(C=C1Oc3cc(O)cc(O)c3C1=O)cn2C` [Example 255, 4,6-dihydroxy-2-[(4-methoxy-1-methyl-1H-indol-3-yl)methylene]-1-benzofuran-3(2H)-one] were 2460 nM and 300 nM.
On the same counts, the results for `CC(=O)Nc1ccc2[nH]c(C)c(C=C3Oc4cc(O)cc(O)c4C3=O)c2c1` [Example 216, N-{3-[(4,6-dihydroxy-3-oxo-1-benzofuran-2(3H)-ylidene)methyl]-2-methyl-1H-indol-5-yl}acetamide] are 9500 nM and 11500 nM.
Regarding `COc1cccc(-c2c(C=C3Oc4cc(O)cc(O)c4C3=O)c3ccccc3n2C)c1` [Example 196, 4,6-dihydroxy-2-{[2-(3-methoxyphenyl)-1-methyl-1H-indol-3-yl]methylene}-1-benzofuran-3(2H)-one], the IC50 in assay [2] came to 1690 nM; in assay [3], 390 nM.

These data come from patent publication US20090311217A1, “3-SUBSTITUTED-1H-INDOLE COMPOUNDS, THEIR USE AS MTOR KINASE AND PI3 KINASE INHIBITORS, AND THEIR SYNTHESES” (priority 2008, published 2009).
